Molecules are shown by their SMILES. Values joined by “and” are separate entries in the source; they are usually repeats but may differ in a detail not shown here. Equal entries are not always repeated.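 Five compound concentrations were applied to cells in 96-well plates for 48 hours; endpoints were derived by simple linear interpolation of the resulting dose-response curve. GI50 is the concentration that inhibits growth by half. TGI denotes the concentration required for complete inhibition of growth.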 Bounds are passed on as bounds.

Among the test systems are CAKI-1 renal; EKVX NSCLC; HS 578T breast; IGROV1 ovarian; NCI-H522 lung; OVCAR-3 ovarian; OVCAR-5 ovarian; OVCAR-8 ovarian; UACC-62 melanoma; UO-31 renal.
Holding throughout (assay): NCI tumour cell line growth inhibition, 48 h

Take `CC[C@]12C=CCN3CC[C@@]4(c5ccc(OC)cc5N(C)[C@H]4[C@@](O)(C(=O)OC)[C@@H]1OC(=O)CCC[P+](c1ccccc1)(c1ccccc1)c1ccccc1)[C@@H]32`: the GI50 in the assay on CAKI-1 renal was 4670 nM and 2800 nM; in the assay on EKVX NSCLC, 1170 nM and 2730 nM; in the assay with HS 578T breast it was 1210 nM and 1150 nM; with IGROV1 ovarian, 235 nM and 394 nM; in the assay on NCI-H522 lung, 247 nM and 342 nM; with OVCAR-3 ovarian, 291 nM and 447 nM. Also, the GI50 is 1190 nM and 1380 nM in the assay with OVCAR-5 ovarian; 1450 nM and 1590 nM in the assay on OVCAR-8 ovarian; 300 nM and 379 nM in the assay with UACC-62 melanoma; 8570 nM and 13400 nM in the assay with UO-31 renal. Besides, the TGI in the assay with CAKI-1 renal is 12300 nM and 10400 nM; in the assay with EKVX NSCLC, 10000 nM and 18200 nM; in the assay with HS 578T breast, 6710 nM and 5070 nM; in the assay with IGROV1 ovarian, 923 nM and 1610 nM; in the assay with NCI-H522 lung it was 5370 nM and 1410 nM; in the assay with OVCAR-3 ovarian it was 2970 nM and 1990 nM. The TGI is 5910 nM and 11000 nM in the assay with OVCAR-5 ovarian; 6770 nM and 9710 nM in the assay on OVCAR-8 ovarian; 964 nM and 1420 nM with UACC-62 melanoma; 26200 nM and 26900 nM in the assay with UO-31 renal.

Take `C=C(C)[C@@]12OC3(/C=C/C=C/CCCCC)O[C@@H]1[C@@H]1[C@@H]4O[C@]4(CO)[C@@H](O)[C@]4(O)C(=O)C(C)=C[C@H]4[C@@]1(O3)[C@H](C)[C@H]2OC(=O)c1ccccc1`: the GI50 was < 10 nM with CAKI-1 renal; 1280 nM with EKVX NSCLC; < 10 nM in the assay with HS 578T breast; 1620 nM with IGROV1 ovarian; 1270 nM in the assay with NCI-H522 lung; 1680 nM with OVCAR-3 ovarian. The GI50 is 4430 nM with OVCAR-5 ovarian, 2770 nM in the assay on OVCAR-8 ovarian, 3190 nM in the assay on UACC-62 melanoma and 22.1 nM in the assay on UO-31 renal. The TGI in the assay with CAKI-1 renal was determined as 34.7 nM; in the assay with EKVX NSCLC, 2860 nM; in the assay on HS 578T breast, 2210 nM; with IGROV1 ovarian it was 3180 nM; in the assay with NCI-H522 lung, 2710 nM; in the assay on OVCAR-3 ovarian, 3080 nM. For the same molecule, the TGI in the assay on OVCAR-5 ovarian is 8620 nM; with OVCAR-8 ovarian, 7080 nM; in the assay with UACC-62 melanoma, 6860 nM; in the assay with UO-31 renal, 1850 nM.

Regarding `COc1cc(Nc2cn[nH]c2-c2ccc(Cl)cc2)cc(OC)c1OC`, the GI50 in the assay with CAKI-1 renal was 2340 nM; in the assay on EKVX NSCLC, 5210 nM; with HS 578T breast it was 3880 nM; in the assay on IGROV1 ovarian, 4600 nM; with NCI-H522 lung, 6810 nM; in the assay with OVCAR-3 ovarian, 3440 nM. Further, the GI50 in the assay on OVCAR-5 ovarian is 15900 nM; in the assay with OVCAR-8 ovarian, 14300 nM; in the assay with UACC-62 melanoma, 3610 nM; in the assay with UO-31 renal, 4090 nM. Besides, the TGI in the assay with CAKI-1 renal stood at 26200 nM; in the assay on EKVX NSCLC, 52700 nM; in the assay on HS 578T breast, 63100 nM; with IGROV1 ovarian, 69600 nM; in the assay on NCI-H522 lung it was 37500 nM; in the assay with OVCAR-3 ovarian, 14400 nM. Besides, the TGI with OVCAR-5 ovarian was > 77100 nM; in the assay on OVCAR-8 ovarian it was > 100000 nM; with UACC-62 melanoma it was 18900 nM; in the assay on UO-31 renal, 28800 nM.

As to `C#Cc1cccc(Nc2ncnc3cc(OC)c(OCCCCCCC(=O)NO)cc23)c1`, the GI50 is 261 nM in the assay with CAKI-1 renal; 154 nM in the assay with EKVX NSCLC; 86 nM in the assay on HS 578T breast; 86.4 nM with IGROV1 ovarian; 30.5 nM with NCI-H522 lung; 129 nM with OVCAR-3 ovarian. Besides, the GI50 in the assay on OVCAR-5 ovarian was 121 nM; in the assay with OVCAR-8 ovarian, 117 nM; with UACC-62 melanoma, 79.7 nM; with UO-31 renal it was 141 nM. In addition, the TGI was found to be 3040 nM in the assay with CAKI-1 renal; 6340 nM in the assay on EKVX NSCLC; 1040 nM in the assay with HS 578T breast; 476 nM with IGROV1 ovarian; 430 nM in the assay with NCI-H522 lung; 1640 nM with OVCAR-3 ovarian. The TGI was found to be 3000 nM in the assay on OVCAR-5 ovarian, 4430 nM with OVCAR-8 ovarian, 344 nM in the assay on UACC-62 melanoma and 2690 nM in the assay with UO-31 renal.

For the molecule `CCC[CH2][Sn]([CH2]CCC)([CH2]CCC)[O]C(=O)CC`, the GI50 with CAKI-1 renal was 61.1 nM; in the assay with EKVX NSCLC, 121 nM; in the assay on HS 578T breast, 180 nM; with IGROV1 ovarian, 167 nM; with NCI-H522 lung it was 149 nM; in the assay on OVCAR-3 ovarian, 133 nM. Besides, the GI50 in the assay with OVCAR-5 ovarian was 154 nM; with OVCAR-8 ovarian, 205 nM; with UACC-62 melanoma it was 178 nM; with UO-31 renal, 150 nM. Further, the TGI was 214 nM with CAKI-1 renal; 335 nM in the assay with EKVX NSCLC; 708 nM in the assay on HS 578T breast; 397 nM with IGROV1 ovarian; 299 nM in the assay with NCI-H522 lung; 261 nM in the assay with OVCAR-3 ovarian. In addition, the TGI in the assay with OVCAR-5 ovarian was 387 nM; in the assay on OVCAR-8 ovarian, 444 nM; in the assay on UACC-62 melanoma, 405 nM; in the assay on UO-31 renal, 314 nM.

As for `O=S(=O)(Nc1cc(F)cc(Cl)c1)c1ccc(-c2cnc(C3CC3)o2)cc1`, the GI50 was 595 nM in the assay on CAKI-1 renal; 4860 nM in the assay on EKVX NSCLC; 1020 nM in the assay on HS 578T breast; 771 nM in the assay with IGROV1 ovarian; 1090 nM with NCI-H522 lung; 489 nM with OVCAR-3 ovarian. For the same molecule, the GI50 in the assay with OVCAR-5 ovarian is 4430 nM; in the assay with OVCAR-8 ovarian, 3720 nM; in the assay with UACC-62 melanoma it was 458 nM; in the assay with UO-31 renal, 2960 nM. Besides, the TGI worked out at 17500 nM with CAKI-1 renal; 39100 nM in the assay on EKVX NSCLC; 17200 nM in the assay on HS 578T breast; 17500 nM with IGROV1 ovarian; 16500 nM with NCI-H522 lung; 12200 nM with OVCAR-3 ovarian. Further, the TGI was 21500 nM in the assay with OVCAR-5 ovarian, 21500 nM in the assay on OVCAR-8 ovarian, 14500 nM with UACC-62 melanoma and 17600 nM in the assay with UO-31 renal.

`COCCOc1cc(F)c2c(Nc3ccc(NC(=O)Cn4cc(C(C)C)nn4)cc3)ncnc2c1`: the GI50 with CAKI-1 renal is > 100000 nM; in the assay with EKVX NSCLC, > 100000 nM; with HS 578T breast, 16500 nM; in the assay with IGROV1 ovarian it was > 100000 nM; in the assay on NCI-H522 lung, 35500 nM; with OVCAR-3 ovarian it was > 100000 nM. The GI50 in the assay with OVCAR-5 ovarian was > 100000 nM; in the assay with OVCAR-8 ovarian, 37400 nM; in the assay on UACC-62 melanoma it was 85400 nM; in the assay with UO-31 renal, > 100000 nM. The TGI in the assay with CAKI-1 renal, with EKVX NSCLC, in the assay with HS 578T breast, with IGROV1 ovarian, with NCI-H522 lung and with OVCAR-3 ovarian was > 100000 nM each time. Besides, the TGI in the assay on OVCAR-5 ovarian, in the assay with OVCAR-8 ovarian, with UACC-62 melanoma and in the assay on UO-31 renal was > 100000 nM each time.

The values are drawn from PubChem BioAssay (NCI).
